Broadly, the IC50 is the concentration needed to halve the response being measured. Lower therefore signals greater potency.

Experiment [1] has as its target Glutamate NMDA receptor. As to the kind of experiment: Tested for in vitro binding affinity against NMDA receptor by using [3H]-CGP- 39653 as radioligand in rat forebrain membranes. Format: cell membranes, Membrane.
Experiment [2] deals with Glutamate NMDA receptor. As to the kind of experiment: Tested for in vitro binding affinity against NMDA receptor by using [3H]-CGP- 39653 as radioligand in rat forebrain membranes. Format: cell membranes.

Turning to `NC(/C=C(\CCCCCCNC(=O)c1ccccc1)CP(=O)(O)O)C(=O)O` (stereo not given), at Glutamate NMDA receptor [1], the IC50 came out at 106 nM.

For the molecule `[N-]=[N+]=Nc1ccc(C(=O)NCCCCCC/C(=C\C(N)C(=O)O)CP(=O)(O)O)cc1` (stereo not given), on Glutamate NMDA receptor [2], the half-inhibitory concentration (IC50) came to 38 nM.

Regarding `[N-]=[N+]=Nc1ccc(C(=O)NCCCCCC/C(=C\C(N)C(=O)O)CP(=O)(O)O)c(O)c1` (stereo not given), on Glutamate NMDA receptor [2], the IC50 is 36 nM.

With `NCCCCCC/C(=C\C(N)C(=O)O)CP(=O)(O)O` (stereo not given), the IC50 on Glutamate NMDA receptor [2] turned out to be 42 nM.

As for `[N-]=[N+]=Nc1ccc(C(=O)NCCCCCC/C(=C\C(N)C(=O)O)CP(=O)(O)O)c(O)c1I` (stereo not given), the 50% inhibitory concentration (IC50) at Glutamate NMDA receptor [2] was 34 nM.

Source of the values: ChEMBL document CHEMBL1126911, “Synthesis and binding properties of 2-amino-5-phosphono-3-pentenoic acid photoaffinity ligands as probes for the glutamate recognition site of the NMDA receptor” (J Med Chem, 1993).
